How the values were obtained:
[1] = test system: ICR type mice; assay: General inspection of blood, daily oral administration; assay type: in vivo, mouse (ICR type); design: key: .dwnarw.: Decrease below control; →: No difference from control; .uparw.: Increase above control
Experimental: (§1) Solutions obtained by dissolving the present substance, 24R,25-(OH)2 -D3 in a prescribed concentration in triglyceride of a fatty acid of 8 to 10 carbon atoms containing 1% of ethanol were administered respectively, orally, forcedly and daily to three male-groups and three female-groups of ICR type mice 5 weeks old at dosages of 10, 100, and 1,000 μg/kg.day. The results are compared below with respect to the following items with those obtained of the male- and female-groups using only the solvent without the present substance.

[2] = test system: ICR type mice; assay: Weight of internal organs, daily oral administration; assay type: in vivo, mouse (ICR type); design: key: .dwnarw.: Decrease below control; →: No difference from control; .uparw.: Increase above control
Experimental: as §1

[3] = test system: femurs and tibias of male Wister rats; assay: Soft X-ray photographs: volumes of cortical bone and sponge bone; assay type: in vivo, rat (Wister); details: 400 μg/kg.day orally, 24 months, vs control
Experimental: Male Wister rats 4 weeks old were preliminarily kept for two weeks. For the subsequent 24 months, the present substance, 24R,25-(OH)2 -D3, was orally administered daily at a dosage of 400 μg/kg.day to the pre-bred rats. Then, the aged rats were sacrificed and their femurs and tibias were collected in the form with adhering flesh, and soft X-ray photographs thereof were taken with a camera (produced by Soflon Corp. and marketed under product code of "Model NST-1005"). By the obtained photographs the volumes of the cortical bone and the sponge bone were measured. Further, as to a part of the femurs the central portion in the direction of the major axis of the femurs was inspected with a microdensitometer thereby analyzing the picture of pattern of shade concentration to calculate the index by the conventional M.D. method. As regards the manner of administration, a modified feed was prepared by uniformly dispersing a prescribed amount of the present substance, 24R,25-(OH)2 -D3, in glycine and admixing the resultant dispersing mixture with a marketed feed (produced by Nippon Clea Co., Ltd. under product code of "CE-2") in such a ratio as to give a final glycine concentration of 0.5% by weight, and the modified feed was consumed by the rats. To the rats of the control group, the same marketed feed containing 0.5% by weight of glycine was given.

SMILES: C=C1CC[C@H](O)C/C1=C/C=C1\CCC[C@]2(C)[C@@H]([C@H](C)CC[C@@H](O)C(C)(C)O)CC[C@@H]12 [24R,25-(OH)2 -D3]
- Amount of hemoglobin ([1]; female, group IV, 10 μm/kg): →
- Hematocrit value ([1]; female, group IV, 10 μm/kg): →
- Number of red blood cells ([1]; female, group IV, 10 μm/kg): →
- Number of white blood cells ([1]; female, group IV, 10 μm/kg): →
- Amount of hemoglobin ([1]; female, group V, 100 μm/kg): →
- Hematocrit value ([1]; female, group V, 100 μm/kg): →
- Number of red blood cells ([1]; female, group V, 100 μm/kg): →
- Number of white blood cells ([1]; female, group V, 100 μm/kg): →
- Amount of hemoglobin ([1]; female, group VI, 1000 μg/kg): →
- Hematocrit value ([1]; female, group VI, 1000 μg/kg): →
- Number of red blood cells ([1]; female, group VI, 1000 μg/kg): →
- Number of white blood cells ([1]; female, group VI, 1000 μm/kg): →
- Amount of hemoglobin ([1]; male, group I, 10 μm/kg): →
- Hematocrit value ([1]; male, group I, 10 μm/kg): →
- Number of red blood cells ([1]; male, group I, 10 μm/kg): →
- Number of white blood cells ([1]; male, group I, 10 μm/kg): →
- Amount of hemoglobin ([1]; male, group II, 100 μm/kg): →
- Hematocrit value ([1]; male, group II, 100 μm/kg): →
- Number of red blood cells ([1]; male, group II, 100 μm/kg): →
- Number of white blood cells ([1]; male, group II, 100 μm/kg): →
- Amount of hemoglobin ([1]; male, group III, 1000 μg/kg): →
- Hematocrit value ([1]; male, group III, 1000 μg/kg): →
- Number of red blood cells ([1]; male, group III, 1000 μg/kg): →
- Number of white blood cells ([1]; male, group III, 1000 μm/kg): →
- Weight of adrenal gland ([2]; female, 10 μg/kg): →
- Weight of brain ([2]; female, 10 μg/kg): →
- Weight of heart ([2]; female, 10 μg/kg): →
- Weight of kidney ([2]; female, 10 μg/kg): →
- Weight of liver ([2]; female, 10 μg/kg): →
- Weight of lung ([2]; female, 10 μg/kg): →
- Weight of ovary ([2]; female, 10 μg/kg): →
- Weight of pituitary gland ([2]; female, 10 μg/kg): →
- Weight of spleen ([2]; female, 10 μg/kg): →
- Weight of thymus gland ([2]; female, 10 μg/kg): →
- Weight of uterus ([2]; female, 10 μg/kg): →
- Weight of adrenal gland ([2]; female, 100 μg/kg): →
- Weight of brain ([2]; female, 100 μg/kg): →
- Weight of heart ([2]; female, 100 μg/kg): →
- Weight of kidney ([2]; female, 100 μg/kg): →
- Weight of liver ([2]; female, 100 μg/kg): →
- Weight of lung ([2]; female, 100 μg/kg): →
- Weight of ovary ([2]; female, 100 μg/kg): →
- Weight of pituitary gland ([2]; female, 100 μg/kg): →
- Weight of spleen ([2]; female, 100 μg/kg): →
- Weight of thymus gland ([2]; female, 100 μg/kg): →
- Weight of uterus ([2]; female, 100 μg/kg): →
- Weight of adrenal gland ([2]; female, 1000 μg/kg): →
- Weight of brain ([2]; female, 1000 μg/kg): →
- Weight of heart ([2]; female, 1000 μg/kg): →
- Weight of kidney ([2]; female, 1000 μg/kg): →
- Weight of liver ([2]; female, 1000 μg/kg): →
- Weight of lung ([2]; female, 1000 μg/kg): →
- Weight of ovary ([2]; female, 1000 μg/kg): →
- Weight of pituitary gland ([2]; female, 1000 μg/kg): →
- Weight of spleen ([2]; female, 1000 μg/kg): →
- Weight of thymus gland ([2]; female, 1000 μg/kg): →
- Weight of uterus ([2]; female, 1000 μg/kg): →
- Weight of adrenal gland ([2]; male, 10 μg/kg): →
- Weight of brain ([2]; male, 10 μg/kg): →
- Weight of heart ([2]; male, 10 μg/kg): →
- Weight of kidney ([2]; male, 10 μg/kg): →
- Weight of liver ([2]; male, 10 μg/kg): →
- Weight of lung ([2]; male, 10 μg/kg): →
- Weight of pituitary gland ([2]; male, 10 μg/kg): →
- Weight of spleen ([2]; male, 10 μg/kg): →
- Weight of testis ([2]; male, 10 μg/kg): →
- Weight of thymus gland ([2]; male, 10 μg/kg): →
- Weight of adrenal gland ([2]; male, 100 μg/kg): →
- Weight of brain ([2]; male, 100 μg/kg): →
- Weight of heart ([2]; male, 100 μg/kg): →
- Weight of kidney ([2]; male, 100 μg/kg): →
- Weight of liver ([2]; male, 100 μg/kg): →
- Weight of lung ([2]; male, 100 μg/kg): →
- Weight of pituitary gland ([2]; male, 100 μg/kg): →
- Weight of spleen ([2]; male, 100 μg/kg): →
- Weight of testis ([2]; male, 100 μg/kg): →
- Weight of thymus gland ([2]; male, 100 μg/kg): →
- Weight of adrenal gland ([2]; male, 1000 μg/kg): →
- Weight of brain ([2]; male, 1000 μg/kg): →
- Weight of heart ([2]; male, 1000 μg/kg): →
- Weight of kidney ([2]; male, 1000 μg/kg): →
- Weight of liver ([2]; male, 1000 μg/kg): →
- Weight of lung ([2]; male, 1000 μg/kg): →
- Weight of pituitary gland ([2]; male, 1000 μg/kg): →
- Weight of spleen ([2]; male, 1000 μg/kg): →
- Weight of testis ([2]; male, 1000 μg/kg): →
- Weight of thymus gland ([2]; male, 1000 μg/kg): →
- cortical bone width [3]: increase
- lateral diameter, D [3]: increase
- trabecula of the sponge bone at epiphysis [3]: increase
